# Results as given in patent US20210078958A1, “QUINAZOLINE DERIVATIVE AND USE THEREOF” (MEDSHINE DISCOVERY INC., priority 2017, published 2021).
# How the values were obtained:
# HER2 (ErbB2) = HER2 (ErbB2) (Homo sapiens, UniProt P04626); assay: in vitro enzyme activity, HER2 (ErbB2); type: biochemical; conditions: human ErbB2, [γ-33P]ATP, poly(Glu, Tyr) substrate
# Method: (§1) The purpose of this assay is to detect the in vitro inhibitory activity of compounds on HER1 (ErbB1), HER2 (ErbB2), and HER4 (ErbB4). The enzymes used in this assay are human ErbB1, ErbB2 and ErbB4. Eurofins Pharma Discovery Service provided the method for activity detection.
# (§2) Steps and Method of the Assay (96-Well Plate):
# (§3) A buffer solution of the test compounds in a dilution of 5-fold (5 μL), polypeptide substrate poly(Glu, Tyr) (4:1) (2.5 μL), ErbB (4-20 ng, 2.5 μL), MnCl2 (50 mM, 1.25 μL), dH2O (3.75 μL), and [γ-^33P]ATP (10 μL) were added, and incubated at 30° C. for 10 minutes. The reaction was terminated by adding 3% phosphoric acid. 10 μL of the sample was taken and transferred to Filtermate A. The filter disc was washed 3 times with 75 mM phosphoric acid and once with methanol. The filter disc was transferred to a sealed plastic bag and the scintillation mixture (4 mL) was added. The intensity of the emitted photon was detected by a scintillation luminescence counter. The CPM (times/min) of the enzyme sample was compared with the CPM of the internal control sample. The level of photon intensity reflected the degree of the tyrosine kinase activity.
# HER4 (ErbB4) = HER4 (ErbB4) (Homo sapiens, UniProt Q15303); assay: in vitro enzyme activity, HER4 (ErbB4); type: biochemical; conditions: human ErbB4, [γ-33P]ATP, poly(Glu, Tyr) substrate
# Chain of HER4 (ErbB4) (Q15303 26-1308): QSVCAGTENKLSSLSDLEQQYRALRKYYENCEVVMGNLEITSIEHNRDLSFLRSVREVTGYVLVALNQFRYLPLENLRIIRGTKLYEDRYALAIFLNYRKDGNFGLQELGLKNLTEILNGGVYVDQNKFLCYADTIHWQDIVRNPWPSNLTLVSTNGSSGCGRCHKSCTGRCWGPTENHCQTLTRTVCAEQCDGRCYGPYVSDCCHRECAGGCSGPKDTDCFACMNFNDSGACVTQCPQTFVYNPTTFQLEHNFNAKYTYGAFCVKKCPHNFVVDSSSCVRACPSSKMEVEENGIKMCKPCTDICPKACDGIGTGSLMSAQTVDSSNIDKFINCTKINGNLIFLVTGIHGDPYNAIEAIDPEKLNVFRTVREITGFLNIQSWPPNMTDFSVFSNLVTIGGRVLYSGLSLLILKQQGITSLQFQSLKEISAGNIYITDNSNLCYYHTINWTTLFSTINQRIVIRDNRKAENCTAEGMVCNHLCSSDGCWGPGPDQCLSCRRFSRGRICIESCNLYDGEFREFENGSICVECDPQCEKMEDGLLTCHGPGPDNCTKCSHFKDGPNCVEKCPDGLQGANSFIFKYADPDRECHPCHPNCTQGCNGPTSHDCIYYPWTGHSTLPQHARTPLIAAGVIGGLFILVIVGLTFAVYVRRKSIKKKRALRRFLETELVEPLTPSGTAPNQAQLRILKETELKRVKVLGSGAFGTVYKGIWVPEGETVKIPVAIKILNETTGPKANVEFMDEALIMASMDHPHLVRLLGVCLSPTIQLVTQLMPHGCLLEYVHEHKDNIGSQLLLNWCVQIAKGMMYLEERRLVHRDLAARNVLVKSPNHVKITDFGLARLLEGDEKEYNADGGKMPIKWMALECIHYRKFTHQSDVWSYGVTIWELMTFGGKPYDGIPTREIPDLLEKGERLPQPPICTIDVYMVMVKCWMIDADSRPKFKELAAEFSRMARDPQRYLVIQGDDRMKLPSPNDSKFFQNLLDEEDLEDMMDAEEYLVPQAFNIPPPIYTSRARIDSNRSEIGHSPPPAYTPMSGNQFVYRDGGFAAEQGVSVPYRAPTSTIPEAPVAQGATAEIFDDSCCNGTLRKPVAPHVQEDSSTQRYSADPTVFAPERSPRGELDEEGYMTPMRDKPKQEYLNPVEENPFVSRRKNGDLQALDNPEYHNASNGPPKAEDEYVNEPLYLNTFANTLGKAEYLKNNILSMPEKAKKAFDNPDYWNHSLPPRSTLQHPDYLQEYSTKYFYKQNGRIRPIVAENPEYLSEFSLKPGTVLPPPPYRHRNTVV
# Method: as §1, §2, §3
# [1] = system: subcutaneous xenograft tumor of human gastric cancer NCI-N87 cells; assay: Assay Example 4: in vivo pharmacodynamics, NCI-N87 xenograft; set-up: species or system BALB/c nude mouse; conditions: for Tumor volume (mm3) (Day 28): NCI-N87 xenograft, Mean + SEM; for T/C (%) / TGI (%): day 28
# Method: Purpose of the assay: to evaluate the in vivo efficacy of test compounds disclosed herein on subcutaneous xenograft tumor of human gastric cancer NCI-N87 cells in a BALB/c nude mouse model.
# Animals of the assay: female BALB/c nude mice, 6-8 weeks old, weighted 18-22 grams; supplier: Shanghai Ling Chang Biotechnology Co., Ltd.
# Human gastric cancer NCI-N87 cells were cultured in monolayer in vitro. The culture conditions were RPMI-1640 medium plus 10% fetal bovine serum, 100 U/mL penicillin, 100 U/mL streptomycin and 2 mM glutamine, 37° C., 5% CO2. The passaging was performed by conventional digestion with trypsin-EDTA twice a week. When the cell saturation was 80%-90%, the cells were collected, counted and inoculated.
# 0.2 mL (10×10^6) of NCI-N87 cells (PBS+Matrigel, 1:1) were inoculated subcutaneously on the right back of each mouse. When the average tumor volume reached 158 mm^3, administration to each group was started.
# The test compounds were formulated into a 0.04 mg/mL and 0.08 mg/mL clear solution in and the solvents of 10% NMP (N-methylpyrrolidone)+10% ethylene glycol stearate+80% water.
# The assay index is to investigate whether tumor growth is inhibited, delayed or cured. Tumor diameter was measured twice a week with a vernier caliper. The calculation formula of tumor volume is: V=0.5a×b^2, wherein a and b represent the long and short diameters of tumor, respectively.
# The antitumor efficacy of the compounds were evaluated by TGI (%) or tumor proliferation rate T/C (%). TGI (%) reflects the tumor growth inhibition rate. TGI (%) is calculated as follows: TGI (%)=[1−(average tumor volume at the end of administration for a certain treatment group−average tumor volume at the beginning of administration for this treatment group)/(average tumor volume at the end of treatment for a solvent control group−average tumor volume at the beginning of administration for this solvent control group)]×100%.
# Tumor proliferation rate T/C (%): the calculation formula is as follows: T/C (%)=average tumor volume at the end of administration for a certain treatment group/average tumor volume at the end of treatment for the solvent control group×100%.
# Statistical analysis included the mean and standard error (SEM) of tumor volume at each time point in each group (See Table 5-1 for specific data). […] The comparison between two groups was analyzed by T-test, and the comparison among three or more groups was analyzed by one-way ANOVA. […] All data analysis was carried out with SPSS 17.0. p<0.05 was considered a significant difference.
# [2] = system: subcutaneous xenograft tumor of human esophageal carcinoma OE21 cells; type: in vivo; conditions: 2/1.5 mg/kg; for Tumor volume (mm3) (Day 21): OE21 xenograft, Mean + SEM; for T/C (%) / TGI (%): day 21
# Method: Purpose of the assay: to evaluate the in vivo efficacy of the compounds to be tested on subcutaneous xenograft tumor of human esophageal carcinoma OE21 cells in a BALB/c nude mouse model.
# Animals of the assay: female BALB/c nude mice, 6-8 weeks old, weighing 17-23 grams; supplier: shanghai sippr bk laboratory animals Ltd.
# Human esophageal carcinoma OE21 cells were cultured in monolayer in vitro. The culture conditions were RPMI-1640 medium plus 10% fetal bovine serum, 100 U/mL penicillin, 100 U/mL streptomycin and 2 mM glutamine, 37° C., 5% CO2. The passaging was performed by conventional digestion with trypsin-EDTA twice a week. When the cell saturation was 80%-90%, the cells were collected, counted and inoculated.
# 0.1 ml […] OE21 cells (PBS) were inoculated subcutaneously on the right back of each mouse. When the average tumor volume reached 112 mm^3, administration to each group was started.
# The test compound was formulated into a 0.15 mg/mL to 0.3 mg/mL clear or suspension solution in the solvents of 10% NMP+10% ethylene glycol stearate+80% water. 6.4 Tumor measurement and assay index
# The assay index is to investigate whether tumor growth is inhibited, delayed or cured. Tumor diameter was measured twice a week with vernier caliper. The calculation formula of tumor volume is: V=0.5a×b^2, wherein a and b represent the long and short diameters of tumor, respectively.
# The antitumor efficacy of the compounds were evaluated by TGI (%) or relative tumor proliferation rate T/C (%). TGI (%) reflects the tumor growth inhibition rate. TGI (%) is calculated as follows: TGI (%)=[(1−(average tumor volume at the end of administration for a certain treatment group−average tumor volume at the beginning of administration for this treatment group))/(average tumor volume at the end of treatment for a solvent control group−average tumor volume at the beginning of administration for this solvent control group)]×100%.
# Relative tumor proliferation rate T/C (%): the calculation formula is as follows: T/C (%)=average tumor volume at the end of administration for a certain treatment group/average tumor volume at the end of treatment for the solvent control group×100%.
# Statistical analysis included the mean and standard error (SEM) of tumor volume at each time point in each group. One-way ANOVA was used for comparison among three or more groups. […] SPSS 17.0 was used for all data analysis. p<0.05 is considered a significant difference.
# Chain of HER2 (ErbB2) (P04626 23-1255): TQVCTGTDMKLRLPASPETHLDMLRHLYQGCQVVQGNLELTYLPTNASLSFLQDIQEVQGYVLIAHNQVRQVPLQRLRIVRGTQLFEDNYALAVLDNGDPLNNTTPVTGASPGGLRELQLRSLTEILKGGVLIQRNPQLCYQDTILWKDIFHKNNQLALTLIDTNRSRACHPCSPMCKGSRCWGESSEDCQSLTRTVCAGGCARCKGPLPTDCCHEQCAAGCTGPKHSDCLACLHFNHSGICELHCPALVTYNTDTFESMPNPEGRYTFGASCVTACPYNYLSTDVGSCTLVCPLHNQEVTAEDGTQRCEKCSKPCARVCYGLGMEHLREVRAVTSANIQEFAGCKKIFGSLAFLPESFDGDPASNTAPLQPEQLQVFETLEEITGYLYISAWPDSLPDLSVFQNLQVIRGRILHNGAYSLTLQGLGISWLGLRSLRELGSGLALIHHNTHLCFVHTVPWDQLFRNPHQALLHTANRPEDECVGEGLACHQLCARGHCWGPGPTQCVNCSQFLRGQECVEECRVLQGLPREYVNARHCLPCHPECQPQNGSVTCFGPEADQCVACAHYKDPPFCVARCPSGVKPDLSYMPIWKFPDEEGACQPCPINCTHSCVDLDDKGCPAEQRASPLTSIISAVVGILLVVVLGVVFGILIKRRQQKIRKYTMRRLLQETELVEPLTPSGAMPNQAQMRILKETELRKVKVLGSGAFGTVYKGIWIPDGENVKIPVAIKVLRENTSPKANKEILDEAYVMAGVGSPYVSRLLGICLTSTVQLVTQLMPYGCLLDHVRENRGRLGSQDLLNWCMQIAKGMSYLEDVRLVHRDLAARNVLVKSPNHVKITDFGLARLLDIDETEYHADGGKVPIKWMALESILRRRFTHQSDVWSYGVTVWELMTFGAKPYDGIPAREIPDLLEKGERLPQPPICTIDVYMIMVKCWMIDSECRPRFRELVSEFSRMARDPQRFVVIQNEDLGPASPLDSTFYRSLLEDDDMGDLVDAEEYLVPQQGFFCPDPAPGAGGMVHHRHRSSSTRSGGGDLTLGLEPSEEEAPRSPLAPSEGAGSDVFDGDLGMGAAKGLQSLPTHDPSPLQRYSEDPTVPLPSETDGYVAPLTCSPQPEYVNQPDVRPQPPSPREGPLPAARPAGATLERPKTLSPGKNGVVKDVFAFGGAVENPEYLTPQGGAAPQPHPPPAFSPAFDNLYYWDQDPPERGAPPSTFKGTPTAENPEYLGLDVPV
SMILES,IC50 (HER2 (ErbB2)),IC50 (HER4 (ErbB4)),Tumor volume (mm3) (Day 28) ([1]; 0.4 mg/kg),T/C (%) ([1]; 0.4 mg/kg),TGI (%) ([1]; 0.4 mg/kg),Tumor volume (mm3) (Day 28) ([1]; 0.8 mg/kg),T/C (%) ([1]; 0.8 mg/kg),TGI (%) ([1]; 0.8 mg/kg),Tumor volume (mm3) (Day 21) [2],T/C (%) [2],TGI (%) [2]
C=CC(=O)N1[C@@H]2CC[C@H]1C[C@H](Oc1cc3c(Nc4ccc(Cl)c(Cl)c4F)ncnc3cc1OC)C2 [Example 8],5.5 nM,3.5 nM,–,–,–,–,–,–,–,–,–
C=CC(=O)N1[C@@H]2CC[C@H]1C[C@H](Nc1cc3c(Nc4ccc(Cl)c(Cl)c4F)ncnc3cc1OC)C2 [Example 38],5 nM,3 nM,47 ± 13 mm3,7.51%,123.72%,15 ± 3 mm3,2.40%,130.56%,55 ± 13 mm3,5.82%,106.65%
"C=CC(=O)N1CCC(Oc2cc3c(Nc4ccc(Cl)c(Cl)c4F)ncnc3cc2OC)CC1 [Poziotinib, reference compound]",–,–,84 ± 9 mm3,13.42%,115.81%,28 ± 8 mm3,4.47%,127.78%,57 ± 7 mm3,6.05%,106.65%
